Reference: ChEMBL document CHEMBL3792312, “Synthesis and docking studies of pyrazine-thiazolidinone hybrid scaffold targeting dormant tuberculosis” (Bioorg Med Chem Lett, 2016)
Values after ≈ are worked out from the molar mass of the structure shown.

Experiments:
[1] = test system: Mycobacterium tuberculosis; test: Antitubercular activity against dormant Mycobacterium bovis BCG after at 30 ug 12 days by nitrate reductase assay; format: functional, variant bovis BCG
[2] = test system: Mycobacterium tuberculosis; test: Antitubercular activity against dormant Mycobacterium bovis BCG after at 3 ug 12 days by nitrate reductase assay; format: functional, variant bovis BCG
[3] = test system: Mycobacterium tuberculosis; test: Antitubercular activity against dormant Mycobacterium bovis BCG after at 10 ug 12 days by nitrate reductase assay; format: functional, variant bovis BCG
[4] = test system: Mycobacterium tuberculosis; test: Antitubercular activity against dormant Mycobacterium bovis BCG after 12 days by nitrate reductase assay; format: functional, organism-based; settings: variant bovis BCG, 288 h

SMILES | inhibition (INH) [1] | inhibition (INH) [2] | inhibition (INH) [3] | IC50 [4] | MIC [4]
Nc1nccnc1C(=O)NN1C(=O)CS[C@H]1c1ccc([N+](=O)[O-])cc1 | 96.67% | 45.89% | 34.04% |  | 
Cc1cnc(C(=O)NN2C(=O)CS[C@H]2c2ccc(N(C)C)cc2)cn1 | 92.16% | 30.06% | 75.69% | 21.8 µg/mL (≈ 61 µM) | 29.4 µg/mL (≈ 82.3 µM)
Nc1nccnc1C(=O)NN1C(=O)CSC1c1ccc(Cl)cc1Cl (stereo not drawn) | 56.5348% | 22.55% | 27.48% |  | 
Nc1nccnc1C(=O)NN1C(=O)CSC1c1cccc([N+](=O)[O-])c1 (stereo not drawn) | 64.92% | 47.21% | 38.85% |  | 
Nc1nccnc1C(=O)NN1C(=O)CSC1c1ccccc1 (stereo not drawn) | 97.97% | 11.98% | 30.74% | 12.9 µg/mL (≈ 40.9 µM) | 24.4 µg/mL (≈ 77.4 µM)
O=C(NN1C(=O)CS[C@@H]1c1ccc(Cl)cc1)c1cnccn1 | 96.24% | 43.58% | 91.85% | 3.26 µg/mL (≈ 9.74 µM) | 8.48 µg/mL (≈ 25.3 µM)
CN(C)c1ccc(C2SCC(=O)N2NC(=O)c2nccnc2N)cc1 (stereo not drawn) | 32.8615% | 26.9022% | 44.99% |  | 
O=C(NN1C(=O)CSC1c1ccc(O)cc1)c1cnccn1 (stereo not drawn) | 54.42% | 9.989% | 16.47% |  | 
Nc1nccnc1C(=O)NN1C(=O)CSC1c1ccc(F)cc1 (stereo not drawn) | 63.72% | 12.4938% | 26.63% |  | 
Nc1nccnc1C(=O)NN1C(=O)CSC1c1ccc(Cl)cc1 (stereo not drawn) | 76.11% | 22.09% | 46.72% |  | 
Nc1nccnc1C(=O)NN1C(=O)CSC1c1ccc(O)cc1 (stereo not drawn) | 82.99% | 14.76% | 45.87% |  | 
Cc1cnc(C(=O)NN2C(=O)CSC2c2ccc(O)cc2)cn1 (stereo not drawn) | 77.54% | -7.23% | -17.5884% |  | 
CCOc1cc([C@@H]2SCC(=O)N2NC(=O)c2cnc(C)cn2)ccc1O | 97.31% | -10.8481% | 34.91% | 9.46 µg/mL (≈ 25.3 µM) | 15.9 µg/mL (≈ 42.5 µM)
O=C(NN1C(=O)CS[C@@H]1c1ccc([N+](=O)[O-])cc1)c1cnccn1 | 98.6% | 24.09% | 92.72% | 4.93 µg/mL (≈ 14.3 µM) | 9.38 µg/mL (≈ 27.2 µM)
COc1ccc(C2SCC(=O)N2NC(=O)c2cnc(C)cn2)cc1OC (stereo not drawn) | 96.436% | -15.2185% | 14.41% |  | 
Cc1cnc(C(=O)NN2C(=O)CSC2c2ccccc2)cn1 (stereo not drawn) | 96.6% | 34.12% | -6.383% |  | 
COc1cc([C@@H]2SCC(=O)N2NC(=O)c2cnc(C)cn2)ccc1O | 98.03% | 3.203% | 81.1965% | 5.1 µg/mL (≈ 14.2 µM) | 12.2 µg/mL (≈ 34 µM)
COc1ccc(C2SCC(=O)N2NC(=O)c2cnc(C)cn2)cc1 (stereo not drawn) | 88.13% | -16.0935% | 66.73% |  | 
COc1ccc([C@H]2SCC(=O)N2NC(=O)c2nccnc2N)cc1OC | 94.4% | 3.112% | 25.35% | 23.4 µg/mL (≈ 62.5 µM) | 29.2 µg/mL (≈ 77.9 µM)
Cc1cnc(C(=O)NN2C(=O)CS[C@@H]2c2cccc([N+](=O)[O-])c2)cn1 | 96.43% | 10.69% | 88.47% | 9.89 µg/mL (≈ 27.5 µM) | 18.5 µg/mL (≈ 51.5 µM)
Cc1cnc(C(=O)NN2C(=O)CSC2c2ccc(Cl)cc2)cn1 (stereo not drawn) | 61.87% | 44.18% | 48.01% |  | 
Cc1cnc(C(=O)NN2C(=O)CS[C@@H]2c2ccc([N+](=O)[O-])cc2)cn1 | 97.76% | -13.1407% | 56.74% | 23.4 µg/mL (≈ 65.3 µM) | 28.8 µg/mL (≈ 80.1 µM)
CCOc1cc([C@H]2SCC(=O)N2NC(=O)c2nccnc2N)ccc1O | 97.5903% | 30.79% | 23.79% | 23.4 µg/mL (≈ 62.4 µM) | 29.4 µg/mL (≈ 78.4 µM)
NNC(=O)c1ccncc1 [ISONIAZID] |  |  |  |  | 0.045 µg/mL (≈ 0.328 µM)
NC(=O)c1cnccn1 [PYRAZINAMIDE] |  |  |  |  | > 100 µg/mL
CO[C@H]1/C=C/O[C@@]2(C)Oc3c(C)c(O)c4c(O)c(c(/C=N/N5CCN(C)CC5)c(O)c4c3C2=O)NC(=O)/C(C)=C\C=C\[C@H](C)[C@H](O)[C@@H](C)[C@@H](O)[C@@H](C)[C@H](OC(C)=O)[C@@H]1C [RIFAMPIN] |  |  |  | 0.004 µg/mL (≈ 0.00486 µM) | 0.04 µg/mL (≈ 0.0486 µM)
